According to US11981658B2, “Substituted aminopyridine compounds as EGFR inhibitors” (YUHAN CORPORATION, priority 2021, dated 2024):
Like-named read-outs stand apart in the source and are kept apart here.

Key:
EGFR wildtype (WT) = EGFR wildtype (WT) (Homo sapiens, UniProt P00533); test: Biochemical EGFR kinase inhibition assay (Lance Ultra TR-FRET), wildtype
How it was run: (§1)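 In this biochemical assay, phosphorylation after a one-hour room-temperature reaction was detected with europium-labelled anti-phosphopeptide antibody at 2 nM final concentration.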

EGFR L858R/C797S = EGFR L858R/C797S (Homo sapiens, UniProt P00533, C797S/L858R); test: Biochemical EGFR kinase inhibition assay (Lance Ultra TR-FRET), double mutant L858R/C797S
EGFR L858R/C797S, sequence (P00533 25-1210 C797S/L858R): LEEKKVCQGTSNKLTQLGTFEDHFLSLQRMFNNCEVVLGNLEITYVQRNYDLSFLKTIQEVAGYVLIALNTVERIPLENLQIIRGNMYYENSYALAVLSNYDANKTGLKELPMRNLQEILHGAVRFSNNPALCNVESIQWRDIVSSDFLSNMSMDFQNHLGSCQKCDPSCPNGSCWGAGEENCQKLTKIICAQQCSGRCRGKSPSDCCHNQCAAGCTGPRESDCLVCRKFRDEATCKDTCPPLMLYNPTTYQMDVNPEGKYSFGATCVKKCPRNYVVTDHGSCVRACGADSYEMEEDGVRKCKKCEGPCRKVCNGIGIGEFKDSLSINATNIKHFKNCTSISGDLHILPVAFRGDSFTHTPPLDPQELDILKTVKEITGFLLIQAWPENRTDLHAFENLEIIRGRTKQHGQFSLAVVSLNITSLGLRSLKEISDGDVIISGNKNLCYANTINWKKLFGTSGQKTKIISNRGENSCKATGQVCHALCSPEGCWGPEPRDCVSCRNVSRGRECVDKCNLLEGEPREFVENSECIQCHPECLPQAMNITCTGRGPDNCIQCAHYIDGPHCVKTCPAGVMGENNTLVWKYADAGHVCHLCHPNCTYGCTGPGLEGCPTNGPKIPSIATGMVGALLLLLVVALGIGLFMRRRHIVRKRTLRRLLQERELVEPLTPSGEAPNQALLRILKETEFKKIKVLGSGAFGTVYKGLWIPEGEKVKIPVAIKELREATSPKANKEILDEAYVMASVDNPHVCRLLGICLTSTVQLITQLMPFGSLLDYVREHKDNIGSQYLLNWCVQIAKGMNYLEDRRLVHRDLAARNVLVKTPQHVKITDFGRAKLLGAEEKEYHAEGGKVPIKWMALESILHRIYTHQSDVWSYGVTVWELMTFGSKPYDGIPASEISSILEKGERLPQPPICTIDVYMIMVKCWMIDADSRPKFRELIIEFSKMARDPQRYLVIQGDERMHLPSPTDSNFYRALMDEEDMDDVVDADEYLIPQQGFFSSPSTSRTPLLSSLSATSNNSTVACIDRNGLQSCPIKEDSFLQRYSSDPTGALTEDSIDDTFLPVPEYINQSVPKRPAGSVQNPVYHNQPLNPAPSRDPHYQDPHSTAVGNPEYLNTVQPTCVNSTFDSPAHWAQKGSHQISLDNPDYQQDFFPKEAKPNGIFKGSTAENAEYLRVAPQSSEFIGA
How it was run: as §1

EGFR L858R/T790M/C797S = EGFR L858R/T790M/C797S (Homo sapiens, UniProt P00533, C797S/L858R/T790M); test: Biochemical EGFR kinase inhibition assay (Lance Ultra TR-FRET), triple mutant L858R/T790M/C797S
EGFR L858R/T790M/C797S, sequence (P00533 25-1210 T790M/C797S/L858R): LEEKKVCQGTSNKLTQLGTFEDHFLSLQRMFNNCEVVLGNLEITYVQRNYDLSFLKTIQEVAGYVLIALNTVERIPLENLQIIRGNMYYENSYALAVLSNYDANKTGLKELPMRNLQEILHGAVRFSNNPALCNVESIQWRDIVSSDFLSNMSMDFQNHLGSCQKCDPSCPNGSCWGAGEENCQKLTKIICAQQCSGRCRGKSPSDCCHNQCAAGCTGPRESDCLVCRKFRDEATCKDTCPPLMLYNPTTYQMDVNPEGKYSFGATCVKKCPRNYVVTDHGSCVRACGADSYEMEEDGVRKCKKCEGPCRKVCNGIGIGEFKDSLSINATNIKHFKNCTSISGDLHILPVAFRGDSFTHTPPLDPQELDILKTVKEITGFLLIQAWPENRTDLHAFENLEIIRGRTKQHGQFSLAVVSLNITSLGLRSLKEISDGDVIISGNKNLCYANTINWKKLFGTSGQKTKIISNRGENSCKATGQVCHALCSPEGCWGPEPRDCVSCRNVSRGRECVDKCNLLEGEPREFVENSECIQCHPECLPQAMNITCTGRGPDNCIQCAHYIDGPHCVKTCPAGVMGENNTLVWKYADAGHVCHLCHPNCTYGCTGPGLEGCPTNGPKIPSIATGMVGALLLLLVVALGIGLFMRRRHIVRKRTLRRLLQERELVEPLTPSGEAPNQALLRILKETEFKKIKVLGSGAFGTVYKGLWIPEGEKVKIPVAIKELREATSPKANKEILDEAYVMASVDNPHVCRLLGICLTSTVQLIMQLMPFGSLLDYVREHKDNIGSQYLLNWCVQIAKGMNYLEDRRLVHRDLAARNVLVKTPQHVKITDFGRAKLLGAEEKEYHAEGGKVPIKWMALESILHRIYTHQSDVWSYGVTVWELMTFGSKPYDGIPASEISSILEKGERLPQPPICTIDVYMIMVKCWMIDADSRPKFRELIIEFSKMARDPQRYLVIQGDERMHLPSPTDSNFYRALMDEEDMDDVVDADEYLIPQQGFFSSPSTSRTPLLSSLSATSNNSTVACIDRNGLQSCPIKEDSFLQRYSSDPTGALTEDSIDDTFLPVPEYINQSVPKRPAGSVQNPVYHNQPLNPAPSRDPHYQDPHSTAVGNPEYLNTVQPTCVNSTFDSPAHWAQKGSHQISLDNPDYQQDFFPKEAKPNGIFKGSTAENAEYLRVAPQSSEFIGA
How it was run: as §1

EGFR Del19/T790M/C797S = EGFR Del19/T790M/C797S (Homo sapiens, UniProt P00533, C797S/DEL746-750/T790M); test: Biochemical EGFR kinase inhibition assay (Lance Ultra TR-FRET), triple mutant del19/T790M/C797S
EGFR Del19/T790M/C797S, sequence (P00533 with tags, fused parts or gaps DEL746-750/T790M/C797S): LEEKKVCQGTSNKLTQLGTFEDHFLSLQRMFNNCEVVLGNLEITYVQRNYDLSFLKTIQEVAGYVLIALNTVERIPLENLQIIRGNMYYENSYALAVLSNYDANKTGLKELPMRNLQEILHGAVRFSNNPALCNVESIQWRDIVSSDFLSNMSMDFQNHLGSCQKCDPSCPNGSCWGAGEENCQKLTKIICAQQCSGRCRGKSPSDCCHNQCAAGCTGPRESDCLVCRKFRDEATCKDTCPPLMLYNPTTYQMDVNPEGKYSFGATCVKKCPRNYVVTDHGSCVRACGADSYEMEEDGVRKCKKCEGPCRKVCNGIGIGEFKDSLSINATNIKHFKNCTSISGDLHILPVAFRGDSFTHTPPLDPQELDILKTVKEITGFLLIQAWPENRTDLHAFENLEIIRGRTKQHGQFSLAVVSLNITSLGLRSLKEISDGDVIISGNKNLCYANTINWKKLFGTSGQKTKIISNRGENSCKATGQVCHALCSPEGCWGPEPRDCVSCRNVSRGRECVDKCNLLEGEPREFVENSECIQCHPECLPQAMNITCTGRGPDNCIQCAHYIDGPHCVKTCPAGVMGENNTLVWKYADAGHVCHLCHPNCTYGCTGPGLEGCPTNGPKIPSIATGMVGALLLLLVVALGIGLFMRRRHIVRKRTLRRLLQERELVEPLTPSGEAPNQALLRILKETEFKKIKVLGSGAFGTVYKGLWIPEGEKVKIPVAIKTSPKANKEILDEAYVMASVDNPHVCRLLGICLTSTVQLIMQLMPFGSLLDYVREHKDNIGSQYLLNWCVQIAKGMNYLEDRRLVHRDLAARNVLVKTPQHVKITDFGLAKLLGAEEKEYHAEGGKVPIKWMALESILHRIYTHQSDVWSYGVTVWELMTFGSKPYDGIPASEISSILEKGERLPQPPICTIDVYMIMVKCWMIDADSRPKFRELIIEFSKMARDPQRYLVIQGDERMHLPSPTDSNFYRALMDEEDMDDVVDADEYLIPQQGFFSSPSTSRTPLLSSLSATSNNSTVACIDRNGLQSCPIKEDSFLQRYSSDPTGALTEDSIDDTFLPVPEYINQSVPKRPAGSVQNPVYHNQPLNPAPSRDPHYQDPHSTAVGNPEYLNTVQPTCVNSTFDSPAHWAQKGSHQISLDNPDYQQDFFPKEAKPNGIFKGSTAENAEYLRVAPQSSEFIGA
How it was run: as §1

EGFR Del19/C797S = EGFR Del19/C797S (Homo sapiens, UniProt P00533, C797S/DEL746-750); test: Biochemical EGFR kinase inhibition assay (Lance Ultra TR-FRET), double mutant del19/C797S
How it was run: as §1

[1] = IC50 L858R/C797S (nM), 100 μM ATP
[2] = IC50 L858R/T790M/C797S (nM), 100 μM ATP
[3] = IC50 Del19/T790M/C797S (nM), 100 μM ATP
[4] = IC50 Del19/C797S (nM), 100 μM ATP
[5] = Km ATP, read-out: IC50 WT (nM) Km ATP
[6] = Km ATP, read-out: IC50 L858R/C797S (nM) Km ATP
[7] = Km ATP, read-out: IC50 L858R/T790M/C797S (nM) Km ATP
[8] = Km ATP, read-out: IC50 Del19/T790M/C797S (nM) Km ATP
[9] = Km ATP, read-out: IC50 Del19/C797S (nM) Km ATP
[10] = ATP at Km, read-out: IC50 WT (nM), Km ATP
[11] = ATP at Km, read-out: IC50 L858R/C797S (nM), Km ATP
[12] = ATP at Km, read-out: IC50 L858R/T790M/C797S (nM), Km ATP
[13] = ATP at Km, read-out: IC50 Del19/T790M/C797S (nM), Km ATP
[14] = ATP at Km, read-out: IC50 Del19/C797S (nM), Km ATP
[15] = Km ATP, read-out: IC50 L858R/T790M/C797S (nM), Km ATP
[16] = Km ATP, read-out: IC50 Del19/T790M/C797S (nM), Km ATP

EGFR wildtype (WT), sequence (P00533 25-1210): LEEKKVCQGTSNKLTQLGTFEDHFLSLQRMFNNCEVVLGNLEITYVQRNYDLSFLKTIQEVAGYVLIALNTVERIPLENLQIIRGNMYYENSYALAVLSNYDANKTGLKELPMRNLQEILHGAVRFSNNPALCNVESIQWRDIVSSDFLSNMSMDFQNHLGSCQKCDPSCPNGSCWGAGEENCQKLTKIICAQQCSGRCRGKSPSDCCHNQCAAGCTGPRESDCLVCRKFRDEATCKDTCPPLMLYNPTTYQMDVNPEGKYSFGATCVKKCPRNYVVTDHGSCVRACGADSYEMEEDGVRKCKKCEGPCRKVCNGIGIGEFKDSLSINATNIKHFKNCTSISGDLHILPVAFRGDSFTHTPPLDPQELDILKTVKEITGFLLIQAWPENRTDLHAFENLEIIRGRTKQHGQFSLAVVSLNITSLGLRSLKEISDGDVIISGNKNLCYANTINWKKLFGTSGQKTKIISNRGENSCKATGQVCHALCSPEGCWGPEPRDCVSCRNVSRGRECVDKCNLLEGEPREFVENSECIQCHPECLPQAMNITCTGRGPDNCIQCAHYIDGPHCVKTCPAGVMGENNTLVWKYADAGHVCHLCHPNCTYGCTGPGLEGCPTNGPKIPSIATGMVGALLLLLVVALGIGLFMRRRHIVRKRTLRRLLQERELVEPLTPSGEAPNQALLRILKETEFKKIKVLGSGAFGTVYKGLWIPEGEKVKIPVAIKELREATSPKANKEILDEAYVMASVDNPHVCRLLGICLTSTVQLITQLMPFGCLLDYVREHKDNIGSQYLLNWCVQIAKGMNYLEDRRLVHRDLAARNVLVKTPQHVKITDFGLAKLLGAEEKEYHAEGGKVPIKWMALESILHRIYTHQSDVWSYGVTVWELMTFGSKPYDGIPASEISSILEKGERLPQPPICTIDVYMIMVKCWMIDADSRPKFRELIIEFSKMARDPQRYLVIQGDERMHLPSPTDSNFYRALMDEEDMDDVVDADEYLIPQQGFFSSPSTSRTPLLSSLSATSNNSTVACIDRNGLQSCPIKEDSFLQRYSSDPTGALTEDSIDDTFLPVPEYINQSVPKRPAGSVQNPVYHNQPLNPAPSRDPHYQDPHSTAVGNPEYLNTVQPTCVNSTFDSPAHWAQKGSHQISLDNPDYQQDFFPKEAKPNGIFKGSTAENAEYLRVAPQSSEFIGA

| Structure (SMILES) | IC50 (EGFR wildtype (WT); IC50 WT (nM), 100 μM ATP) | IC50 (EGFR L858R/C797S; [1]) | IC50 (EGFR L858R/T790M/C797S; [2]) | IC50 (EGFR Del19/T790M/C797S; [3]) | IC50 (EGFR Del19/C797S; [4]) | IC50 (EGFR wildtype (WT); [5]) | IC50 (EGFR L858R/C797S; [6]) | IC50 (EGFR L858R/T790M/C797S; [7]) | IC50 (EGFR Del19/T790M/C797S; [8]) | IC50 (EGFR Del19/C797S; [9]) | IC50 (EGFR wildtype (WT); [10]) | IC50 (EGFR L858R/C797S; [11]) | IC50 (EGFR L858R/T790M/C797S; [12]) | IC50 (EGFR Del19/T790M/C797S; [13]) | IC50 (EGFR Del19/C797S; [14]) | IC50 (EGFR L858R/T790M/C797S; [15]) | IC50 (EGFR Del19/T790M/C797S; [16]) | IC50 (EGFR wildtype (WT); Km ATP, read-out: IC50 WT (nM), Km ATP) | IC50 (EGFR L858R/C797S; Km ATP, read-out: IC50 L858R/C797S (nM), Km ATP) | IC50 (EGFR Del19/C797S; Km ATP, read-out: IC50 Del19/C797S (nM), Km ATP) |
| --- | --- | --- | --- | --- | --- | --- | --- | --- | --- | --- | --- | --- | --- | --- | --- | --- | --- | --- | --- | --- |
| CC(C)NC1CCN(c2cc(Nc3ccnc(-c4cnn(S(=O)(=O)C5CC5)c4)n3)ncc2C#Cc2cnn(C)c2)CC1 [Example 64, 2-(1-(Cyclopropylsulfonyl)-1H-pyrazol-4-yl)-N-(4-(4-(isopropylamino)piperidin-1-yl)-5-((1-methyl-1H-pyrazol-4-yl)ethynyl)pyridin-2-yl)pyrimidin-4-amine] | > 10000 nM | 306 nM | 2 nM | 1 nM | 88.3 nM |  |  |  |  |  |  |  |  |  |  |  |  |  |  |  |
| Cn1cc(C#Cc2cnc(Nc3ccnc(-c4cnn(S(=O)(=O)C5CC5)c4)n3)cc2N2CCC(O)CC2)c(C(F)(F)F)n1 [Example 89, 1-(2-((2-(1-(Cyclopropylsulfonyl)-1H-pyrazol-4-yl)pyrimidin-4-yl)amino)-5-((1-methyl-3-(trifluoromethyl)-1H-pyrazol-4-yl)ethynyl)pyridin-4-yl)piperidin-4-ol] | > 10000 nM | 183 nM | 19.6 nM | 4.3 nM | 63.8 nM |  |  |  |  |  |  |  |  |  |  |  |  |  |  |  |
| O=S(=O)(C1CC1)n1cc(-c2nccc(Nc3cc(N4CCCC(O)C4)c(C#Cc4cnn(C5CCOCC5)c4)cn3)n2)cn1 (centres unmarked) [Example 99, 1-(2-((2-(1-(Cyclopropylsulfonyl)-1H-pyrazol-4-yl)pyrimidin-4-yl)amino)-5-((1-(tetrahydro-2H-pyran-4-yl)-1H-pyrazol-4-yl)ethynyl)pyridin-4-yl)piperidin-3-ol] | > 10000 nM | 58.1 nM | 3 nM | 0.7 nM | 14 nM | 41.7 nM | 4.2 nM | 0.8 nM | 0.7 nM | 10.4 nM |  |  |  |  |  |  |  |  |  |  |
| CC(=O)N1CCC(n2cc(C#Cc3cnc(Nc4ccnc(-c5cnn(S(=O)(=O)C6CC6)c5)n4)cc3N3CCC(F)CC3)cn2)CC1 [Example 112, 1-(4-(4-((6-((2-(1-(Cyclopropylsulfonyl)-1H-pyrazol-4-yl)pyrimidin-4-yl)amino)-4-(4-fluoropiperidin-1-yl)pyridin-3-yl)ethynyl)-1H-pyrazol-1-yl)piperidin-1-yl)ethan-1-one] | > 10000 nM | 17.1 nM | 2.8 nM | 1.5 nM | 5.2 nM | 21.3 nM | 2.8 nM | 1.1 nM | 1.5 nM | 4.6 nM |  |  |  |  |  |  |  |  |  |  |
| CC(=O)N1CCC(n2cc(C#Cc3cnc(Nc4ccnc(-c5cnn(S(=O)(=O)C6CC6)c5)n4)cc3N3CCC(F)(CO)CC3)cn2)CC1 [Example 111, 1-(4-(4-((6-((2-(1-(Cyclopropylsulfonyl)-1H-pyrazol-4-yl)pyrimidin-4-yl)amino)-4-(4-fluoro-4-(hydroxymethyl)piperidin-1-yl)pyridin-3-yl)ethynyl)-1H-pyrazol-1-yl)piperidin-1-yl)ethan-1-one] | 4380 nM | 4.7 nM | 1.3 nM | 0.9 nM | 2 nM | 6 nM | 1.2 nM | 0.5 nM | 0.8 nM | 2 nM |  |  |  |  |  |  |  |  |  |  |
| Cc1cnc(C#Cc2cnc(Nc3ccnc(-c4cnn(S(=O)(=O)C5CC5)c4)n3)cc2N[C@@H]2CCC[C@H](O)C2)cn1 [Example 170, (1 S,3R)-3-((2-((2-(1-(Cyclopropylsulfonyl)-1H-pyrazol-4-yl)pyrimidin-4-yl)amino)-5-((5-methylpyrazin-2-yl)ethynyl)pyridin-4-yl)amino)cyclohexan-1-ol] | > 10000 nM | 316 nM | 5.7 nM | 1 nM | 19.9 nM |  |  |  |  |  | 286 nM | 23.8 nM | 0.6 nM | 0.9 nM | 4.4 nM |  |  |  |  |  |
| O=C(c1ccc(C#Cc2cnc(Nc3ccnc(-c4cnn(S(=O)(=O)C5CC5)c4)n3)cc2N[C@H]2CC[C@@H](CO)CC2)cc1)N1CCC(O)CC1 [Example 441, (4-((6-((2-(1-(Cyclopropylsulfonyl)-1H-pyrazol-4-yl)pyrimidin-4-yl)amino)-4-(((ls, 4s)-4-(hydroxymethyl)cyclohexyl)amino)pyridin-3-yl)ethynyl)phenyl)(4-hydroxypiperidin-1-yl)methanone] | > 10000 nM | 47.1 nM | 0.8 nM | 2.2 nM | 2.3 nM |  |  |  |  |  |  |  |  |  |  | 0.5 nM | 2.1 nM |  |  |  |
| Cn1cc(C#Cc2cnc(Nc3ccnc(-c4cnn(S(=O)(=O)C5CC5)c4)n3)cc2N[C@H]2CCC[C@H](O)C2)cn1 [Example 43, (1 S,3S)-3-((2-((2-(1-(Cyclopropylsulfonyl)-1H-pyrazol-4-yl)pyrimidin-4-yl)amino)-5-((1-methyl-1H-pyrazol-4-yl)ethynyl)pyridin-4-yl)amino)cyclohexan-1-ol] | > 10000 nM | 8.9 nM | 0.7 nM | 0.6 nM | 1.7 nM | 20.3 nM | 1.1 nM | 0.2 nM | 0.5 nM | 1.4 nM |  |  |  |  |  |  |  |  |  |  |
| CN1CCC(C#Cc2cnc(Nc3ccnc(-c4cnn(S(=O)(=O)C5CC5)c4)n3)cc2NC2CCC(O)CC2)C1 (centres unmarked) [Example 181, (1s,4s)-4-((2-((2-(1-(Cyclopropylsulfonyl)-1H-pyrazol-4-yl)pyrimidin-4-yl)amino)-5-((1-methylpyrrolidin-3-yl)ethynyl)pyridin-4-yl)amino)cyclohexan-1-ol] | 2920 nM | 6 nM | 0.1 nM | 0.1 nM | 0.6 nM |  |  |  |  |  | 6.1 nM | 0.6 nM | 0.05 nM | 0.1 nM | 0.7 nM |  |  |  |  |  |
| CS(=O)(=O)N1CCC(C#Cc2cnc(Nc3ccnc(-c4cnn(S(=O)(=O)C5CC5)c4)n3)cc2N[C@H]2CC[C@@H](CO)CC2)CC1 [Example 387, ((1s,4s)-4-((2-((2-(1-(Cyclopropylsulfonyl)-1H-pyrazol-4-yl)pyrimidin-4-yl)amino)-5-((1-(methylsulfonyl)piperidin-4-yl)ethynyl)pyridin-4-yl)amino)cyclohexyl)methanol] | > 10000 nM | 36.7 nM | 0.7 nM | 0.6 nM | 4.4 nM |  |  |  |  |  |  |  |  |  |  | 0.2 nM | 0.3 nM | 9.5 nM | 2.7 nM | 1.2 nM |
| Cn1cc(C#Cc2cnc(Nc3ccnc(-c4cnn(S(=O)(=O)C5CC5)c4)n3)cc2N2CCC(CO)C2)cn1 (centres unmarked) [Example 33, (1-(2-((2-(1-(Cyclopropylsulfonyl)-1H-pyrazol-4-yl)pyrimidin-4-yl)amino)-5-((1-methyl-1H-pyrazol-4-yl)ethynyl)pyridin-4-yl)pyrrolidin-3-yl)methanol] | > 10000 nM | 152 nM | 3.7 nM | 1.9 nM | 10.2 nM |  |  |  |  |  |  |  |  |  |  |  |  |  |  |  |
| Cn1cc(C#Cc2cnc(Nc3ccnc(-c4cnn(S(=O)(=O)C5CC5)c4)n3)cc2NCC(C)(C)CO)cn1 [Example 39, 3-((2-((2-(1-Cyclopropylsulfonylpyrazol-4-yl)pyrimidin-4-yl)amino)-5-(2-(1-methylpyrazol-4-yl)ethynyl)-4-pyridyl)amino)-2,2-dimethyl-propan-1-ol] | > 10000 nM | 203 nM | 8.8 nM | 2.6 nM | 53.6 nM |  | 32.3 nM |  |  |  |  |  |  |  |  |  |  |  |  |  |
